According to patent US20090076067A1, “PHARMACEUTICAL COMPOSITION COMPRISING AZARHODACYANINE COMPOUND AS ACTIVE INGREDIENT” (priority 2005, published 2009):
≈ marks a conversion by molar mass, not a printed value. Where two headings read alike, the source gives them in different places.

Key:
[1] = tested on: Trypanosoma cruzi (Tulahuen C2C4 strain); assay: American trypanosoma protozoa proliferation inhibition screening test; assay type: cell-based; settings: Tulahuen C2C4 strain in rat L6 cells, 96 hours, CPRG/Nonidet
Procedure: In this experiment, amastigote and trypomastigote of Trypanosoma cruzi (Tulahuen C2C4 strain) infected to rat L6 cells were used. The medium used in the experiment was prepared as follows: to RPMI 1640 medium containing L6 cells, L-glutamine (200 mM) and fetal bovine serum was added to achieve concentration of 1% and 10%, respectively. The culture was conducted under CO2 concentration 5% and temperature 37° C.
Either the compound of the invention or a positive control (benznidazole) was dissolved into DMSO to prepare test solution having predefined concentration. To each well in a 96-well culture plate, medium containing 5×10^3 protozoa was added and precultured for 48 hours. After replacing the medium, either the test solution containing compound of the invention in predefined concentration or DMSO without compound was added. The test solution was duplicated.
The plate was cultured in an incubator for 96 hours, and the proliferation inhibition activity was examined. The activity was determined as follows. To each well, 50 μL CPRG/Nonidet was added, then left for 2 to 6 hours. Then the culture plate was mounted on an absorption microplate reader to determine absorption at 540 nm. The trypanosoma infection rate of the sample containing the test compound and that of the control sample was calculated.
(§1) Using the protozoa infection rate thus obtained, the proliferation inhibition rate was calculated according to the following equation to determine 50% proliferation inhibition concentration (EC50).
(§2) Proliferation inhibition rate(%)={1−(b−a)/(c−a)}×100
(§3) a: initial infection rate b: infection rate of the test compound solution c: infection rate of the control

[2] = tested on: Plasmodium Falciparum k1 strain; assay: Chloroquine-resistant tropical malaria protozoa proliferation inhibition screening test; assay type: cell-based; settings: for Selective toxicity: EC50 rat L6 cells / EC50 Chloroquine-resistant malaria protozoa; for EC50: Plasmodium falciparum
Procedure: In this experiment, Plasmodium Falciparum k1 strain protozoa were used. The medium used in the experiment was filter-sterilized RPMI-1640 medium. To the medium human serum was added to achieve 5% concentration. The protozoa was cultured under condition of O2 concentration 3%, CO2 concentration 4%, N2 concentration 93%, and temperature 37° C.
The cultured malaria infected red blood cells were collected by centrifugation, diluted with non-infected red blood cells, to achieve initial infection rate 0.15%. The hematocrit was 2.5%.
To each well in a 96-well culture plate, 200 μL malaria infected culture was added, and either test solution containing test compound at predefined concentration or DMSO having no test compound was added. Each test solution was prepared in duplicate. After 48 hours culture under 37° C., hypoxanthine labeled with radioactive tritium (^3H) of 0.5 μCi was added to each well. After culturing under same condition for 24 hours, the product was collected on a glass fiber filter and washed. The intensity of radiation was measured by Beta plate liquid scintillation counter (Wallac Inc.), to determine malaria protozoa infection rate in test compound samples and control samples.
Using the malaria protozoa infection rate, the proliferation inhibition rate was calculated according to the following equation to determine 50% proliferation inhibition concentration (EC50).
as §2
(§4) a: initial infection rate b: infection rate of test compound solution c: infection rate of the control

[3] = Rat L6 cell proliferation inhibition test; assay type: cell-based; settings: read-out: EC50 cytotoxicity L6
Procedure: (§5) Rat-derived L6 cells (rat skeletal myoblast cell) were used for this test. […] The sample was cultured under CO2 concentration 5% and temperature 37° C. Either the composition of the invention or control was dissolved into DMSO, to prepare test solutions having predefined concentration.
(§6) The samples were precultured until logarithmic growth phase was reached. Then the culture was transferred to each well in a 96-well culture plate, and either test solution containing test compound at predefined concentration or DSMO without compound was added. The test solution was duplicated.
(§7) The plate was cultured in an incubator for 72 hours, to examine proliferation inhibition activity. The activity was examined as follows. Alamar Blue water solution 10 μL was added to each well, and culture was continued for 2 hours. Next, the culture plate was mounted on a fluorescence microplate reader (Spectramax Gemeni XS; Molecular Devices Corporation, U.S.), and irradiated with excitation wavelength 536 nm to determine fluorescence at 588 nm. The survival rate of L6 cells in the test solution sample and control sample was calculated.
(§8) Proliferation inhibition rate(%)={(C−A)/(B−A)}×100
(§9) A: Initial cell count B: Cell count in control after 3 days C: Cell count in test solution after 3 days

[4] = tested on: Rat-derived L6 cells (rat skeletal myoblast cell); assay: Rat L6 cell proliferation inhibition test; assay type: cell-based; settings: Alamar Blue
Procedure: as §5, §6, §7, §8, §9

[5] = tested on: Trypanosoma brucei rhodensiense (STIB 900 strain); assay: African trypanosoma protozoa proliferation inhibition screening test; assay type: cell-based; settings: for EC50 Trypanosoma brucei rhod.: STIB 900 bloodstream form, 72 hours, Alamar blue
Procedure: In this experiment, bloodstream form trypomastigote of Trypanosoma brucei rhodensiense (STIB 900 strain) was used. The medium used in the experiment was prepared as follows: to filter-sterilized MEM medium, 25 mM N-2-hydroxyethylpiperazine-2-ethane sulfonate (HEPES), 1 g/L glucose, 1% MEM nonessential amino acid, 0.2 mM 2-mercaptoethanol, 2 mM pyruvic calcium salt, 0.1 mM hypoxanthine, and 15% heat-treated horse serum were added. The protozoa was cultured under atmosphere of CO2 concentration 5% and temperature 37° C.
Either the compound of the invention or a positive control (melarsoprol) was dissolved into dimethylsulfoxide (DMSO) to prepare test solution having predefined concentration. To each well in a 96-well culture plate, medium containing 8×10^3 protozoa, and either test solution containing the test compound at predefined concentration or DMSO without compound was added. Then medium was added to achieve 100 μL. The test solution was duplicated.
The culture plate was cultured in an incubator for 72 hours, and the proliferation inhibition activity was examined. The activity was determined as follows. To each well, 10 μL Alamar blue water solution was added, then the plate was again cultured for 2 hours. Then the culture plate was mounted on a fluorescence microplate reader (Spectramax Gemeni XS; Molecular Devices Corporation, U.S.), and irradiated with 536 nm excitation wavelength to determine fluorescence at 588 nm. The trypanosoma infection rate of the sample containing the test composition and that of the control sample was calculated.
as §1, §2, §3

[6] = tested on: Plasmodium berghei NK 65 strain; assay: animal or person; assay type: in vivo; settings: for Survival days (mean survival days, treatment group minus control group) / Recovery Rate (suppression): dose 25 mg/kg/d intraperitoneally, 4 days; for Recovery Rate (suppression): P. berghei infected ICR mice
Description: For a test to evaluate therapeutic effect of the compound, 4-day suppressive test which is commonly used for in vivo test to evaluate activity of anti-malaria compound was used. In this experiment, rodent malaria protozoa (Plasmodium berghei NK 65 strain) were used. The infected blood was collected from 5-weeks age (SPF) ICR strain male mouse which were infected intraperitoneally and successively cultured. From the caudal vein of the infected mouse, blood was collected to calculate infection rate. After confirming that infection rate was adequately elevated (10% to 20% infection), the malaria infected blood was collected from the heart of the mouse. The infection rate and count of the red blood cells (cells/mL) were calculated. The infected red blood cell was diluted with PBS buffer to achieve […] protozoa per 0.2 mL dose. The infected cells were injected to the caudal vein of uninfected mouse (ICR strain, male, 5-weeks age) to cause infection. Five mice were made into one group, and the test compound was administered in predefined concentration. From 2 hours after infection, the compound was administered every 24 hours for straight 4 days.
The compound of the invention to be used in this test was dissolved in saline (Otsuka Pharmaceutical Co., Ltd.) to obtain test solution of predefined concentration. When the compound was not dissolved in saline, it was dissolved in SSV (saline containing 0.5% sodium=carboxymethyl cellulose, 0.5% benzyl alcohol, 0.4% Tween 80) to prepare test solution. For the control group (non-treatment group), only saline (Otsuka) was administered. Positive controls S-1 to S-5 were dissolved in saline (Otsuka) or SSV in predetermined concentration to prepare test solution. When the compound was not dissolved in saline, it was dissolved in SSV. After measuring weight of each mouse, the dose for each mouse was calculated to achieve 5.0 to 40 mg concentration for weight1 kg.
Five mice were made into one group, and the test compound was administered intraperitoneally at predefined concentration. From 2 hours after infection, the compound was administered every 24 hours for straight 4 days. Subsequent to the 24 hours after last treatment, blood was collected from the tail of the mouse to prepare thin layer smear in order to count malaria protozoa infection in the treatment group and the control group under microscope. The mice showing maximum value and minimum value were excluded from the average calculation (average was calculated for three mice), to determine malaria protozoa infection rate (Parasitemia).
Using malaria protozoa infection rate thus calculated, recovery rate obtained from the test compound (suppression) was determined.
Recovery rate: suppression(%)=(b−a)/b×100 a: Protozoa infection rate in the treatment group b: Protozoa infection rate in the control group Mean survival days: MSD(day)=c−d c: Average days from the initial treatment (date of malaria infection) to the date of death for the treatment group (5 mice) d: Average days from the date of malaria infection to the date of death for the non-treatment (control) group (5 mice) […]
Tables 5 to 7 illustrate the recovery rate (%) and survival days (day) of malaria infected mice treated with intraperitoneal injection of the test compound and the control compound at predefined concentration. The meaning of symbols in the table is as follows.

[7] = tested on: Leishmania donovani (MHOM/ET/67/L82 strain); assay: Leishmania protozoa proliferation inhibition screening test; assay type: cell-based; settings: amastigote, 72 hours, Alamar blue
Procedure: In this experiment, Leishmania donovani (MHOM/ET/67/L82 strain) was used. The protozoa were successively cultured in Syrian Golden hamsters to obtain amastigote. The medium used in the experiment was SM medium having heat-treated fetal bovine serum 10% added, and pH prepared to 5.4. The culture was conducted under CO2 concentration 5% and temperature 37° C.
Either the compound of the invention or a positive control (miltefosine) was dissolved into DMSO to prepare test solution having predefined concentration. To each well of a 96-well culture plate, medium containing predetermined number of protozoa was added and the culture was pre-treated. The concentration of amastigote was determined by CASY cell analyze system (Scharfe GMBH Co., Germany). Subsequently, either test solution containing compound of the invention in predefined concentration or DMSO without compound was added. The test solution was duplicated.
The plate was cultured in an incubator for 72 hours, and the proliferation inhibition activity was examined. The activity was determined as follows. To each well, 10 μL Alamar blue aqueous solution was added, then cultured again for 2 hours. Then the culture plate was mounted on a fluorescence microplate reader (Spectramax Gemeni XS; Molecular Devices Corporation, U.S), and irradiated 536 nm excitation wavelength to determine […] at 588 nm. The leishmania infection rate of the sample containing the test compound and that of the control sample was calculated.
as §1, §2, §4

[8] = chloroquine-resistant K1 strain, 3H-hypoxanthine uptake, read-out: EC50 P. falciparum K1
[9] = L6 cells (rat skeletal myoblasts), Table 1, Alamar Blue
[10] = chloroquine-resistant K1 strain, 3H-hypoxanthine uptake

O=C(Cn1ccnc1[N+](=O)[O-])NCc1ccccc1 [Benznidazole, reference compound]
EC50 ([1]; Trypanosoma cruzi, read-out: EC50 Trypanosoma cruzi): 0.87 µg/mL (≈ 3.34 µM)

CCN(CC)CCCC(C)Nc1ccnc2cc(Cl)ccc12 (stereo not shown) [Chloroquine, reference compound]
Selective toxicity [2]: 1300 | EC50 ([2]; K1, read-out: EC50 P. falciparum K1): 0.047 µg/mL (≈ 0.147 µM) | EC50 at 72 h ([3]; Table 1, rat L6 cells, Alamar Blue): 60 µg/mL (≈ 188 µM)

CCN1C(=O)/C(=c2\nc3c(s2)=CC=CN3C)S/C1=N\c1cccc[n+]1C.[Cl-] [Compound A-22]
Selective toxicity [2]: >782 | EC50 [2, 8]: 0.0115 µg/mL | EC50 at 72 h [3, 9]: > 90 µg/mL

CCn1c(=O)/c(=c2\nc3c(o2)=CC=CN3C)s/c1=C1\S/C(=N\c2scc[n+]2C)N(Cc2ccccc2)C1=O [Compound B-22]
EC50 P. falciparum K1 [2, 10]: 0.005 µg/mL | EC50 cytotoxicity L6 ([4]; Table 1, 72 hours): >90 µg/mL | EC50 Trypanosoma brucei rhod. [5]: 0.068 µg/mL | Survival days (mean survival days, treatment group minus control group) [6]: 9.0 days | Recovery Rate (suppression) [6]: 72.4%

CCN1C(=O)/C(=c2/s/c(=C3/C=CC=CN3C)c(=O)n2CC)S/C1=N\c1sc2cc(F)ccc2[n+]1C [Compound B-32]
EC50 P. falciparum K1 [2, 10]: 0.0162 µg/mL | EC50 cytotoxicity L6 ([4]; Table 1, 72 hours): 15.88 µg/mL | EC50 cytotoxicity L6 ([4]; Table 2, 72 hours): 15.88 µg/mL | EC50 cytotoxicity L6 ([4]; Table 4, 72 hours): 15.88 µg/mL | EC50 Trypanosoma brucei rhod. [5]: 0.1585 µg/mL | EC50 Leishmania donovani [7]: 0.2195 µg/mL | Survival days (mean survival days, treatment group minus control group) [6]: 4.8 days | Recovery Rate (suppression) [6]: 79.5%

CCn1c(=O)/c(=C2\SCCN2C)s/c1=C1\S/C(=N\c2scc[n+]2C)N(C(C)C)C1=O [Compound B-35]
Selective toxicity [2]: 3630 | EC50 [2, 8]: 0.006 µg/mL | EC50 at 72 h [3, 9]: 21.8 µg/mL | inhibition in vivo at 25 mg/kg/day ([6]; Plasmodium berghei, ip, 96 h, read-out: Recovery Rate (suppression)): 63.5% | Survival days (mean survival days, treatment group minus control group) [6]: 3.5 days

C=CCN1C(=O)/C(=c2/s/c(=C3/SCCN3C)c(=O)n2CC)S/C1=N\c1sc2cc(Cl)ccc2[n+]1C [Compound B-39]
EC50 cytotoxicity L6 ([4]; Table 2, 72 hours): 3.72 µg/mL | EC50 cytotoxicity L6 ([4]; Table 3, 72 hours): 3.72 µg/mL | EC50 cytotoxicity L6 ([4]; Table 4, 72 hours): 3.72 µg/mL | EC50 Trypanosoma brucei rhod. [5]: 0.141 µg/mL | EC50 Trypanosoma cruzi [1]: 0.141 µg/mL | EC50 Leishmania donovani [7]: 0.049 µg/mL | Survival days (mean survival days, treatment group minus control group) [6]: 4.5 days | Recovery Rate (suppression) [6]: 77.7%

Nc1nc(N)nc(Nc2ccc([As]3SCC(CO)S3)cc2)n1 (stereo not shown) [Melarsoprol, reference compound]
EC50 at 72 h ([3]; Table 2, rat L6 cells, Alamar Blue): 3.1 µg/mL | Selective toxicity ([5]; EC50 rat L6 cells / EC50 African trypanosoma protozoa): 1300 | EC50 ([5]; Trypanosoma brucei, STIB900, 72 h, read-out: EC50 Trypanosoma brucei rhod.): 2.4 ng/mL

CCCCCCCCCCCCCCCCOP(=O)([O-])OCC[N+](C)(C)C [Miltefosine, reference compound]
EC50 ([7]; Leishmania donovani, read-out: EC50 Leishmania donovani): 0.11 µg/mL (≈ 0.27 µM)
